In PubChem BioAssay (NCI):
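A five-concentration, 48-hour dose response in 96-well plates underlies each endpoint, interpolated linearly between surrounding concentrations. GI50: concentration for 50% inhibition of growth. At the TGI there is no net growth.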

Key:
Experiment in all cases: growth of human tumour cells (NCI), 48 h
786-0 renal = tested on: 786-0 renal
A549 NSCLC = tested on: A549 NSCLC
ACHN renal = tested on: ACHN renal
BT-549 breast = tested on: BT-549 breast
CAKI-1 renal = tested on: CAKI-1 renal
CCRF-CEM leukemia = tested on: CCRF-CEM leukemia
COLO 205 colon = tested on: COLO 205 colon
DU-145 prostate = tested on: DU-145 prostate
EKVX NSCLC = tested on: EKVX NSCLC
HCC-2998 colon = tested on: HCC-2998 colon
HCT-116 colon = tested on: HCT-116 colon
HCT-15 colon = tested on: HCT-15 colon
HL-60(TB) leukemia = tested on: HL-60(TB) leukemia
HOP-62 NSCLC = tested on: HOP-62 NSCLC
HS 578T breast = tested on: HS 578T breast
HT29 colon = tested on: HT29 colon
IGROV1 ovarian = tested on: IGROV1 ovarian
K-562 leukemia = tested on: K-562 leukemia
LOX IMVI melanoma = tested on: LOX IMVI melanoma
M14 melanoma = tested on: M14 melanoma
MALME-3M melanoma = tested on: MALME-3M melanoma
MCF7 breast = tested on: MCF7 breast
MDA-MB-231 breast = tested on: MDA-MB-231 breast
MOLT-4 leukemia = tested on: MOLT-4 leukemia
NCI-H226 lung = tested on: NCI-H226 lung
NCI-H23 lung = tested on: NCI-H23 lung
NCI-H460 lung = tested on: NCI-H460 lung
NCI-H522 lung = tested on: NCI-H522 lung
NCI/ADR-RES ovarian = tested on: NCI/ADR-RES ovarian
OVCAR-4 ovarian = tested on: OVCAR-4 ovarian
OVCAR-5 ovarian = tested on: OVCAR-5 ovarian
OVCAR-8 ovarian = tested on: OVCAR-8 ovarian
PC-3 prostate = tested on: PC-3 prostate
RPMI-8226 leukemia = tested on: RPMI-8226 leukemia
RXF 393 renal = tested on: RXF 393 renal
SF-268 CNS = tested on: SF-268 CNS
SF-295 CNS = tested on: SF-295 CNS
SF-539 CNS = tested on: SF-539 CNS
SK-MEL-2 melanoma = tested on: SK-MEL-2 melanoma
SK-MEL-28 melanoma = tested on: SK-MEL-28 melanoma
SK-MEL-5 melanoma = tested on: SK-MEL-5 melanoma
SK-OV-3 ovarian = tested on: SK-OV-3 ovarian
SN12C renal = tested on: SN12C renal
SNB-75 CNS = tested on: SNB-75 CNS
SR leukemia = tested on: SR leukemia
SW-620 colon = tested on: SW-620 colon
T-47D breast = tested on: T-47D breast
TK-10 renal = tested on: TK-10 renal
U251 CNS = tested on: U251 CNS
UACC-257 melanoma = tested on: UACC-257 melanoma
UACC-62 melanoma = tested on: UACC-62 melanoma
UO-31 renal = tested on: UO-31 renal
HOP-92 NSCLC = tested on: HOP-92 NSCLC
MDA-MB-435 = tested on: MDA-MB-435
SNB-19 CNS = tested on: SNB-19 CNS

COP(=O)(Cc1ccccc1)Cc1ccccc1
TGI (786-0 renal): > 100 µM
TGI (A549 NSCLC): > 100 µM
TGI (ACHN renal): > 100 µM
TGI (BT-549 breast): > 100 µM
TGI (CAKI-1 renal): > 100 µM
TGI (CCRF-CEM leukemia): > 100 µM
TGI (COLO 205 colon): > 100 µM
TGI (DU-145 prostate): > 100 µM
TGI (EKVX NSCLC): > 100 µM
TGI (HCC-2998 colon): > 100 µM
TGI (HCT-116 colon): > 100 µM
TGI (HCT-15 colon): > 100 µM
TGI (HL-60(TB) leukemia): > 100 µM
TGI (HOP-62 NSCLC): > 100 µM
TGI (HS 578T breast): > 100 µM
TGI (HT29 colon): > 100 µM
TGI (IGROV1 ovarian): > 100 µM
TGI (K-562 leukemia): > 100 µM
TGI (LOX IMVI melanoma): > 100 µM
TGI (M14 melanoma): > 100 µM
TGI (MALME-3M melanoma): > 100 µM
TGI (MCF7 breast): > 100 µM
TGI (MDA-MB-231 breast): > 100 µM
TGI (MOLT-4 leukemia): > 100 µM
TGI (NCI-H226 lung): > 100 µM
TGI (NCI-H23 lung): > 100 µM
TGI (NCI-H460 lung): > 100 µM
TGI (NCI-H522 lung): > 100 µM
TGI (NCI/ADR-RES ovarian): > 100 µM
TGI (OVCAR-4 ovarian): > 100 µM
TGI (OVCAR-5 ovarian): > 100 µM
TGI (OVCAR-8 ovarian): > 100 µM
TGI (PC-3 prostate): > 100 µM
TGI (RPMI-8226 leukemia): > 100 µM
TGI (RXF 393 renal): > 100 µM
TGI (SF-268 CNS): > 100 µM
TGI (SF-295 CNS): > 100 µM
TGI (SF-539 CNS): > 100 µM
TGI (SK-MEL-2 melanoma): > 100 µM
TGI (SK-MEL-28 melanoma): > 100 µM
TGI (SK-MEL-5 melanoma): > 100 µM
TGI (SK-OV-3 ovarian): > 100 µM
TGI (SN12C renal): > 100 µM
TGI (SNB-75 CNS): > 100 µM
TGI (SR leukemia): > 100 µM
TGI (SW-620 colon): > 100 µM
TGI (T-47D breast): > 100 µM
TGI (TK-10 renal): > 100 µM
TGI (U251 CNS): > 100 µM
TGI (UACC-257 melanoma): > 100 µM
TGI (UACC-62 melanoma): > 100 µM
TGI (UO-31 renal): > 100 µM

COc1ccc(C(=O)/C=C/c2cc3c(c(OC)c2)OCC(=O)N3)cc1
GI50 (786-0 renal): 3.36 µM
TGI (786-0 renal): > 100 µM
GI50 (DU-145 prostate): 2.74 µM
TGI (DU-145 prostate): > 100 µM
GI50 (HCT-15 colon): 1.92 µM
TGI (HCT-15 colon): > 100 µM
GI50 (HOP-62 NSCLC): 3.73 µM
TGI (HOP-62 NSCLC): > 100 µM
GI50 (HOP-92 NSCLC): 1.27 µM
TGI (HOP-92 NSCLC): 17.7 µM
GI50 (HS 578T breast): 3.63 µM
TGI (HS 578T breast): > 100 µM
GI50 (MCF7 breast): 2.32 µM
TGI (MCF7 breast): > 100 µM
GI50 (MDA-MB-435): 3.11 µM
TGI (MDA-MB-435): > 100 µM
GI50 (NCI-H226 lung): 3.88 µM
TGI (NCI-H226 lung): > 100 µM
GI50 (NCI/ADR-RES ovarian): 3.14 µM
TGI (NCI/ADR-RES ovarian): > 100 µM
GI50 (OVCAR-8 ovarian): 2.85 µM
TGI (OVCAR-8 ovarian): > 100 µM
GI50 (SF-268 CNS): 3.42 µM
TGI (SF-268 CNS): > 100 µM
GI50 (SF-295 CNS): 4.57 µM
TGI (SF-295 CNS): > 100 µM
GI50 (SK-MEL-5 melanoma): 2.88 µM
TGI (SK-MEL-5 melanoma): > 100 µM
GI50 (SNB-19 CNS): 3.26 µM
TGI (SNB-19 CNS): > 100 µM
GI50 (SNB-75 CNS): 1.66 µM
TGI (SNB-75 CNS): 11.5 µM
GI50 (SR leukemia): 1.05 µM
TGI (SR leukemia): > 100 µM
